Target: T1, KATP channels (Homo sapiens, UniProt O60706+Q14654)
T1 construct: TE671 human medulloblastoma cells were obtained from ATCC; host or cells: TE671 human medulloblastoma cells
Experiment: Potassium Channel Assay (FLIPR membrane potential dye, TE671 cells)
Format: cell-based
Settings: TE671 human medulloblastoma cells, room temperature, fluorescence change monitored for 3 minutes
Protocol: TE671 human medulloblastoma cells were obtained from ATCC and grown in Dulbecco's modified Eagle's medium (DMEM) supplemented with 10% fetal bovine serum, 100 U/ml penicillin and 100 U/ml streptomycine.
The day before testing, the cells were plated in black 96-well plates at 50K/well. On the day of testing, the growth media was removed, then 100 μl of FLIPR buffer (20 mM HEPES, 120 mM NaCl, 2 mM KCl, 2 mM CaCl2, 1 mM MgCl2, 5 mM Glucose) and 100 μl of Membrane Potential Assay Dye (Molecular Devices) dissolved in FLIPR buffer were added to each well. The cells were incubated at room temperature for 15 to 30 min.
The effect of test compounds on KATP channels were evaluated on a fluorometric imaging plate reader (FLIPR, Molecular Devices) at room temperature. After a baseline period, 50 μl of 5× stock solution of test compound prepared in FLIPR buffer was added and fluorescence change was monitored for 3 minutes. After this reading, glyburide, a KATP channel blocker, was added to a final concentration of 5 μM to check the specificity of the test compound as a KATP channel opener. Hyperpolarization resulting from KATP channel opening was observed as a decrease in fluorescence intensity.
Representative compounds of the present invention were tested according to the procedure described above, with results as listed in Table 7 below.

T1 sequence (Q14654 whole entry): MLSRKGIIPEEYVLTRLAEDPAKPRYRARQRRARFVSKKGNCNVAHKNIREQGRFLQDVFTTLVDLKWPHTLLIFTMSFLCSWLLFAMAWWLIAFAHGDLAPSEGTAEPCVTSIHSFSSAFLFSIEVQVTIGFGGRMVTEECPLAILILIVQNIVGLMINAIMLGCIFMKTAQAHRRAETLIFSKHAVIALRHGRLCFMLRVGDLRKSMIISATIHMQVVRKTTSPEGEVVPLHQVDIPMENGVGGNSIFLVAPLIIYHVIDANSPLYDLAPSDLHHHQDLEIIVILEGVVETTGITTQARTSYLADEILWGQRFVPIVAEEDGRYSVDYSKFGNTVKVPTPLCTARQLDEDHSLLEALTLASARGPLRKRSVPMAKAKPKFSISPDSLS
T1 sequence (O60706 1-1549 isoform O60706-2): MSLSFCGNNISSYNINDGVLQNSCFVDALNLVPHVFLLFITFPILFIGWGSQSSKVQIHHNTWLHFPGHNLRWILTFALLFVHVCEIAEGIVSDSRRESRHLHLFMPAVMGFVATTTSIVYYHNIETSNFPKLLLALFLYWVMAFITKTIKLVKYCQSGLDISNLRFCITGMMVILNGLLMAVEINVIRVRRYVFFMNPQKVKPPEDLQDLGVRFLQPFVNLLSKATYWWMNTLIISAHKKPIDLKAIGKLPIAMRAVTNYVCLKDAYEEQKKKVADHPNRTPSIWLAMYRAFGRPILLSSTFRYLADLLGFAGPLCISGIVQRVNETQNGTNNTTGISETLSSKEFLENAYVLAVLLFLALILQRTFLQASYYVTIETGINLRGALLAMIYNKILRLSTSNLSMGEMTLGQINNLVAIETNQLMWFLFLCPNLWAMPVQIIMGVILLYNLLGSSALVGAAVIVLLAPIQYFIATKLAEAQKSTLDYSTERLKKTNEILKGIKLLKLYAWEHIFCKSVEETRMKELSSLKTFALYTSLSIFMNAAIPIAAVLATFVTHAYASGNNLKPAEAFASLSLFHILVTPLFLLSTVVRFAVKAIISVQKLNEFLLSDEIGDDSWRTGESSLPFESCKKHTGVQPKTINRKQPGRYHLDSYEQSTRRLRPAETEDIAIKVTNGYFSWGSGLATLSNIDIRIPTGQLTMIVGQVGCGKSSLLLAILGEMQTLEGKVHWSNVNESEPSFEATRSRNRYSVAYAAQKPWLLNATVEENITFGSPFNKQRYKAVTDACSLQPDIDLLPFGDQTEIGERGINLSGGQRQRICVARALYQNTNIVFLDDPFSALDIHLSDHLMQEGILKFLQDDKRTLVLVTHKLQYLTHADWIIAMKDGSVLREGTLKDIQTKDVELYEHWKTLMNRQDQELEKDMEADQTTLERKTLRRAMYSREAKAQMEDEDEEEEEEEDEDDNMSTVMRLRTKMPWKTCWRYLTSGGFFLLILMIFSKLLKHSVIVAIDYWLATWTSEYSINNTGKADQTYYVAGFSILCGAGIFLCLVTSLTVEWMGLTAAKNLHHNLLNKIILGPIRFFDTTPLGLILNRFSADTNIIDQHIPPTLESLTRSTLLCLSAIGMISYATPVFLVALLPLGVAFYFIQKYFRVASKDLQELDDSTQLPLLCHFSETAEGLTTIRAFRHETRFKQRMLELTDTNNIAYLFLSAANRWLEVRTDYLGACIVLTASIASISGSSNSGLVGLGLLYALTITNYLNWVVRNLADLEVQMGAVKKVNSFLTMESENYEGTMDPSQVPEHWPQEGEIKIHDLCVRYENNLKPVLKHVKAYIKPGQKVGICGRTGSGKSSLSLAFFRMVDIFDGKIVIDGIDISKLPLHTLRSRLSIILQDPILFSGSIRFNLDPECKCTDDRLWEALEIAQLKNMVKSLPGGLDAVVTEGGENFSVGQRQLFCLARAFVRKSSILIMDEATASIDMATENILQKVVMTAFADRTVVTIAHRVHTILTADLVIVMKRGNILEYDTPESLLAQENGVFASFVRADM

| Structure (SMILES) | % Stimulation | EC50 |
| --- | --- | --- |
| CCOC(=O)c1cnc2cc(C(F)(F)F)ccc2c1-c1cccc(C#N)c1 [Compound 1, 4-(3-Cyano-phenyl)-7-trifluoromethyl-quinoline-3-carboxylic acid ethyl ester] | 36% | > 30 µM |
| CCOC(=O)c1cnc2cc(C(F)(F)F)ccc2c1-c1cc(C)cc(OC)c1 [Compound 2, 4-(3-Methoxy-5-methyl-phenyl)-7-trifluoromethyl-quinoline-3-carboxylic acid ethyl ester] | 23% | > 30 µM |
| CCOC(=O)c1cnc2cc(C(F)(F)F)ccc2c1-c1cc(C(F)(F)F)cc(C(F)(F)F)c1 [Compound 3, 4-(3,5-Bis-trifluoromethyl-phenyl)-7-trifluoromethyl-quinoline-3-carboxylic acid ethyl ester] | 19% | > 30 µM |
| CCOC(=O)c1ccc(-c2c(C(=O)OCC)cnc3cc(C(F)(F)F)ccc23)cc1 [Compound 4, 4-(4-Ethoxycarbonyl-phenyl)-7-trifluoromethyl-quinoline-3-carboxylic acid ethyl ester] | 38% | > 30 µM |
| CCOC(=O)c1cnc2cc(C(F)(F)F)ccc2c1-c1ccc(-c2ccccc2)cc1 [Compound 5, 4-Biphenyl-4-yl-7-trifluoromethyl-quinoline-3-carboxylic acid ethyl ester] | 33% | > 30 µM |
| CCOC(=O)c1cnc2cc(C(F)(F)F)ccc2c1-c1ccccc1 [Compound 6, 4-Phenyl-7-trifluoromethyl-quinoline-3-carboxylic acid ethyl ester] | 42% | > 30 µM |
| CCOC(=O)c1cnc2cc(C(F)(F)F)ccc2c1-c1cccc(C(C)=O)c1 [Compound 7, 4-(3-Acetyl-phenyl)-7-trifluoromethyl-quinoline-3-carboxylic acid ethyl ester] | 2% | > 30 µM |
| CCOC(=O)c1cnc2cc(C(F)(F)F)ccc2c1-c1cc(C(F)(F)F)ccc1F [Compound 8, 4-(2-Fluoro-5-trifluoromethyl-phenyl)-7-trifluoromethyl-quinoline-3-carboxylic acid ethyl ester] | 31% | > 30 µM |
| CCOC(=O)c1cnc2cc(C(F)(F)F)ccc2c1-c1cc(C=O)ccc1OC [Compound 9, 4-(5-Formyl-2-methoxy-phenyl)-7-trifluoromethyl-quinoline-3-carboxylic acid ethyl ester] |  | 7.73 µM |
| CCOC(=O)c1cnc2cc(C(F)(F)F)ccc2c1-c1cccc(C(F)(F)F)c1 [Compound 10, 7-Trifluoromethyl-4-(3-trifluoromethyl-phenyl)-quinoline-3-carboxylic acid ethyl ester] | 22% | > 30 µM |
| CCOC(=O)c1cnc2cc(C(F)(F)F)ccc2c1-c1cccc(C=O)c1 [Compound 11, 4-(3-Formyl-phenyl)-7-trifluoromethyl-quinoline-3-carboxylic acid ethyl ester] | 2% | > 30 µM |
| CCOC(=O)c1cnc2cc(C(F)(F)F)ccc2c1-c1cccc(CO)c1 [Compound 12, 4-(3-Hydroxymethyl-phenyl)-7-trifluoromethyl-quinoline-3-carboxylic acid ethyl ester] | 20% | > 30 µM |
| CCOC(=O)c1cnc2cc(C(F)(F)F)ccc2c1-c1ccc(C)c(C)c1 [Compound 13, 4-(3,4-Dimethyl-phenyl)-7-trifluoromethyl-quinoline-3-carboxylic acid ethyl ester] | 0% | > 30 µM |
| CCOC(=O)c1cnc2cc(C(F)(F)F)ccc2c1-c1cc(CO)ccc1OC [Compound 14, 4-(5-Hydroxymethyl-2-methoxy-phenyl)-7-trifluoromethyl-quinoline-3-carboxylic acid ethyl ester] |  | 4.56 µM |
| CCOC(=O)c1cnc2cc(C(F)(F)F)ccc2c1OS(=O)(=O)C(F)(F)F [Compound 15, 4-Trifluoromethanesulfonyloxy-7-trifluoromethyl-quinoline-3-carboxylic acid ethyl ester] |  | 6.27 µM |
| N#Cc1cccc(-c2ccncc2C(O)c2ccccc2)c1 (stereo not shown) [Compound 19, 3-[3-(Hydroxy-phenyl-methyl)-pyridin-4-yl]-benzonitrile] |  | 9.63 µM |
| CC(C)(C)c1ccc(C(O)c2cnccc2-c2cccc(C#N)c2)cc1 (stereo not shown) [Compound 27, 3-{3-[(4-tert-Butyl-phenyl)-hydroxy-methyl]-pyridin-4-yl}-benzonitrile] |  | 10.7 µM |
| COc1ccccc1C(O)c1cnccc1-c1cccc(C#N)c1 (stereo not shown) [Compound 28, 3-{3-[Hydroxy-(2-methoxy-phenyl)-methyl]-pyridin-4-yl}-benzonitrile] |  | 10.2 µM |
| COc1ccc(C(O)c2cnccc2-c2cccc(C#N)c2)cc1 (stereo not shown) [Compound 30, 3-{3-[Hydroxy-(4-methoxy-phenyl)-methyl]-pyridin-4-yl}-benzonitrile] | 7% | > 30 µM |
| Cc1ccccc1C(O)c1cnccc1-c1cccc(C#N)c1 (stereo not shown) [Compound 31, 3-{3-[Hydroxy-(2-methyl-phenyl)-methyl]-pyridin-4-yl}-benzonitrile] |  | 15 µM |
| Cc1cc(C)c(C(O)c2cnccc2-c2cccc(C#N)c2)c(C)c1 (stereo not shown) [Compound 35, 3-{3-[Hydroxy-(2,4,6-trimethyl-phenyl)-methyl]-pyridin-4-yl}-benzonitrile] | 37% | > 30 µM |
| N#Cc1cccc(-c2ccncc2C(O)C(F)(F)F)c1 (stereo not shown) [Compound 39, 3-[3-(2,2,2-Trifluoro-1-hydroxy-ethyl)-pyridin-4-yl]-benzonitrile] |  | 10.5 µM |
| O=C(c1ccccc1)c1ccncc1C(O)c1ccccc1 (stereo not shown) [Compound 43, [3-(Hydroxy-phenyl-methyl)-pyridin-4-yl]-phenyl-methanone] |  | 17.4 µM |
| CN(C)c1ccc(C(O)c2cnccc2C(=O)c2ccccc2)cc1 (stereo not shown) [Compound 44, {3-[(4-Dimethylamino-phenyl)-hydroxy-methyl]-pyridin-4-yl}-phenyl-methanone] |  | 17.4 µM |
| COc1ccc(C(O)c2cnccc2C(=O)c2ccccc2)cc1F (stereo not shown) [Compound 45, {3-[(3-Fluoro-4-methoxy-phenyl)-hydroxy-methyl]-pyridin-4-yl}-phenyl-methanone] |  | 11.6 µM |
| COc1ccc(OC)c(C(O)c2cnccc2C(=O)c2ccccc2)c1 (stereo not shown) [Compound 46, {3-[(2,5-Dimethoxy-phenyl)-hydroxy-methyl]-pyridin-4-yl}-phenyl-methanone] |  | 12.1 µM |

Other lines, results leading:

| % Stimulation | EC50 | Structure (SMILES) |
| --- | --- | --- |
|  | 19.4 µM | N#Cc1cccc(-c2ccncc2C(O)c2ccc(F)cc2)c1 (stereo not shown) [Compound 20, 3-{3-[(4-Fluoro-phenyl)-hydroxy-methyl]-pyridin-4-yl}-benzonitrile] |
|  | 23.2 µM | N#Cc1cccc(-c2ccncc2C(O)c2cccc(F)c2)c1 (stereo not shown) [Compound 21, 3-{3-[(3-Fluoro-phenyl)-hydroxy-methyl]-pyridin-4-yl}-benzonitrile] |
|  | 15.1 µM | Cc1ccc(C(O)c2cnccc2-c2cccc(C#N)c2)cc1F (stereo not shown) [Compound 22, 3-{3-[(3-Fluoro-4-methyl-phenyl)-hydroxy-methyl]-pyridin-4-yl}-benzonitrile] |
|  | 11.4 µM | N#Cc1cccc(-c2ccncc2C(O)c2ccc(F)c(F)c2)c1 (stereo not shown) [Compound 23, 3-{3-[(3,4-Difluoro-Phenyl)-hydroxy-methyl]-pyridin-4-yl}-benzonitrile] |
|  | 14.5 µM | N#Cc1cccc(-c2ccncc2C(O)c2ccc(Cl)c(Cl)c2)c1 (stereo not shown) [Compound 24, 3-{3-[(3,4-Dichloro-phenyl)-hydroxy-methyl]-pyridin-4-yl}-benzonitrile] |
|  | 9.82 µM | N#Cc1cccc(-c2ccncc2C(O)c2cc(Cl)cc(Cl)c2)c1 (stereo not shown) [Compound 25, 3-{3-[(3,5-Dichloro-phenyl)-hydroxy-methyl]-pyridin-4-yl}benzonitrile] |
|  | 10.2 µM | N#Cc1cccc(-c2ccncc2C(O)c2ccc(Cl)cc2)c1 (stereo not shown) [Compound 26, 3-{3-[(4-Chloro-phenyl)-hydroxy-methyl]-pyridin-4-yl}-benzonitrile] |
|  | 13.7 µM | COc1cccc(C(O)c2cnccc2-c2cccc(C#N)c2)c1 (stereo not shown) [Compound 29, 3-{3-[Hydroxy-(3-methoxy-phenyl)-methyl]-pyridin-4-yl}-benzonitrile] |
|  | 8.48 µM | Cc1ccc(C(O)c2cnccc2-c2cccc(C#N)c2)cc1 (stereo not shown) [Compound 32, 3-{3-[Hydroxy-(4-methyl-phenyl)-methyl]-pyridin-4-yl}-benzonitrile] |
|  | 20.8 µM | CSc1ccc(C(O)c2cnccc2-c2cccc(C#N)c2)cc1 (stereo not shown) [Compound 34, 3-{3-[Hydroxy-(4-methylsulfanyl-phenyl)-methyl]-pyridin-4-yl}-benzonitrile] |
| 24% | > 30 µM | COc1ccc(F)cc1C(O)c1cnccc1-c1cccc(C#N)c1 (stereo not shown) [Compound 36, 3-{3-[(5-Fluoro-2-methoxy-phenyl)-hydroxy-methyl]-pyridin-4-yl}-benzonitrile] |
|  | 9.59 µM | COc1ccc(C(O)c2cnccc2-c2cccc(C#N)c2)cc1F (stereo not shown) [Compound 37, 3-{3-[(3-Fluoro-4-methoxy-phenyl)-hydroxy-methyl]-pyridin-4-yl}-benzonitrile] |
| 63% | > 30 µM | Cc1ccc(F)cc1C(O)c1cnccc1-c1cccc(C#N)c1 (stereo not shown) [Compound 38, 3-{3-[(5-Fluoro-2-methyl-phenyl)-hydroxy-methyl]-pyridin-4-yl}-benzonitrile] |

Source: US7671065B2, “Pyridine derivatives as potassium ion channel openers” (Janssen Pharmaceutica N.V., priority 2005, dated 2010)
